Data as given in patent US10265303B2, “Hyperphenylalaninemia and treatments thereof” (BERGEN TEKNOLOGIOVERFØRING AS, priority 2015, dated 2019).

Experiments:
[1] = molecular target: full-length tetrameric wild-type hPAH (Homo sapiens, UniProt P00439); settings: 137.8 μM compound, 2% DMSO
Procedure: (§1) Tetrameric full length wild-type (WT) human PAH (hPAH) and truncated ΔN102/ΔC24-hPAH corresponding to a dimeric form containing the catalytic domain of known crystal structure were recombinantly expressed in E. coli fused to maltose-binding protein and purified by amylose-affinity chromatography and further cleaved and isolated to homogeneity essentially as described [Martinez, A., et al., Biochem. J., 1995. 306: p. 589-597]. Protein concentration was measured in a NanoDrop spectrophotometer (Thermo Scientific) using the absorbance at 280 nm and the theoretical molar extinction coefficient of 49780 M^−1 cm^−1 for WT-PAH and 46675 M^−1 cm^−1 for ΔN102/ΔC24-hPAH.
(§2) PAH activity on isolated recombinant enzymes was measured at 37° C. for 1 min with quantification of L-Tyr formed by HPLC with fluorimetric detection, essentially as described [Martinez et al. supra] with the indicated concentrations of the compounds. […] After an equilibration of the plate at 37° C. for 3 min the reaction was initiated by adding 75 μM BH4 (Schircks Laboratories, Jona, Switzerland) in 5 mM DTT and stopped after 1 min by adding 50 μl of 2% (v/v) acetic acid in ethanol (all concentrations referred to a final reaction volume of 50 μl) prior to determination of L-Tyr produced by HPLC with fluorimetric detection (γexcitation=274 nm; γemission=304 nm). Controls with 2% DMSO without compound were routinely assayed as references for data processing. A BRAVO automated liquid handling platform was used in these assays.
(§3) The steady-state kinetic parameters were estimated with 0.25 μg hPAH (0.965 μM subunit), 1 mM L-Phe and different BH4 concentrations in the range 0-400 μM, and with 100 μM BH4 and L-Phe (0-1 mM). The saturation curves were fitted to hyperbolic (for BH4) or sigmoidal (for L-Phe) kinetic models with SigmaPlot v. 9.0. (SPSS). Kinetic parameters are presented as mean±SEM obtained from nonlinear regression analysis.

[2] = molecular target: truncated dimeric hPAH ΔN102/ΔC24 (Homo sapiens, UniProt P00439); settings: 137.8 μM compound, 2% DMSO, 1 mM L-Phe
Procedure: as §1, §2, §3

[3] = molecular target: T1, human wild-type PAH (Homo sapiens, UniProt P00439); experiment: PAH activity in lysates of HEK293 cells permanently expressing human wild-type PAH; assay type: cell-based
T1 construct: expressed in transfected cells
T1 sequence (P00439 1-452): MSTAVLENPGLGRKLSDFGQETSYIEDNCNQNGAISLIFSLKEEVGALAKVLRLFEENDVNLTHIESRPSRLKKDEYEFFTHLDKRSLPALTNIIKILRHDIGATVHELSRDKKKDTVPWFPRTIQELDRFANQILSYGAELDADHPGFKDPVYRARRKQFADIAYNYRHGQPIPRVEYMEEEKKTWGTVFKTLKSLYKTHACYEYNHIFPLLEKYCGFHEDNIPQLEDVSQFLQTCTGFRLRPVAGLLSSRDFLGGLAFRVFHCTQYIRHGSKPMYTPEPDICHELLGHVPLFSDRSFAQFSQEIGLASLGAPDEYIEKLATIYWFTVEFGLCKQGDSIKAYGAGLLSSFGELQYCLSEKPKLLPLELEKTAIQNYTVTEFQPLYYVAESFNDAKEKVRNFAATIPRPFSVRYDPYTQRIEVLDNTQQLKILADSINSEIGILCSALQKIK
Procedure: (§4) Human embryonic kidney cells (HEK293; Life Technologies™) permanently expressing WT-hPAH, prepared with the Flp-In system (Life Technologies™) were kindly provided by Per Knappskog, Haukeland University Hospital. About 1 million cells were grown in DMEM medium containing 4.5 g/l glucose, 10% (v/v) fetal calf serum, 0.25 mg/ml gentamycine, 2 mM L-glutamine and 50 μg/ml hygromycin B, and after 24 h medium was changed and the test compounds were added at a concentration of 0.02 mg/ml (1% DMSO). Eight hours later, the cells were harvested, and the pellets frozen in dry ice and stored at −80° C. […] To prepare the cell extracts, the frozen cell pellets were thawed in TBS (+protease inhibitor) buffer and cells were homogenized with 0.1% TX-100, incubated 15 minutes at 4° C. and extracts were clarified by centrifugation 20000 g for 15 min at 4° C. Protein concentrations were normalized using a Direct Detect Spectrometer (Merck Millipore).
The 7 selected compounds as well as the first generation pharmacological chaperones (Compounds III and IV) were further analyzed in the presence and absence of BH2 (200 μM), added as precursor of BH4, to account for additive effects. […]
as §4, with “and the compounds were” for “and the test compounds were”, “concentration of 0.04 mg/ml (1%” for “concentration of 0.02 mg/ml (1%”, “for 15 minutes at 4°” for “for 15 min at 4°”

SMILES: COc1cc(Cc2cnc(N)nc2N)cc(OC)c1OC [c53, trimethoprim]
- effect on kinetic parameters for L-Phe (Vmax and S0.5) ([1]; 100 μM BH4): does not affect the kinetic parameters for the substrate
- effect on Vmax and Km for BH4 ([1]; 1 mM L-Phe): decreased Vmax and Km for the cofactor
- mode of inhibition towards BH4 ([1]; 1 mM L-Phe): uncompetitive inhibition
- effect on Vmax and Km for BH4 [2]: did not change the Vmax or Km-values for BH4
- effect on PAH activity (FIG. 1A) ([3]; 0.04 mg/ml (average 116.7 μM), 1% DMSO, 8 h): very large stimulating effect
- PAH activity-cells (%) ([3]; 0.04 mg/ml compound, 1% DMSO, 8 h, Table 3): 148 ± 16%
- increase of hPAH activity with respect to the control (FIG. 6) ([3]; average compound concentration 144.9 μM, 1% DMSO, 8 h): around 40%
- effect on PAH activity together with BH2 (FIG. 1B) ([3]; compound average 116.7 μM plus BH2 200 μM): additive
